Results from DBAASP.
Values after ≈ are worked out from the molar mass of the structure shown. Each block holds one compound with its values, some of them ahead of it.

Experiments:
Test in all cases: ≥ marks a high value that may be exact or a test limit, other limits are often not marked, values filed in µg/mL are converted to µM
Escherichia coli UB1005 = system: Escherichia coli UB1005
Pseudomonas aeruginosa = system: Pseudomonas aeruginosa
Salmonella typhimurium = system: Salmonella typhimurium
Staphylococcus aureus = system: Staphylococcus aureus
Escherichia coli 55B5 = system: Escherichia coli 55B5
Serratia rubidaea X01 = system: Serratia rubidaea X01
[1] = system: Pseudomonas aeruginosa 1.50
[2] = system: Staphylococcus carnosus KHS
[3] = system: Rhodococcus rhodochrous X15
[4] = system: Escherichia coli ATCC 25922
[5] = system: Bacillus licheniformis X39
[6] = system: Staphylococcus aureus ATCC 2592
[7] = system: Psychrobacter faecalis X29
Bacillus pumilus = system: Bacillus pumilus
Shigella dysenteriae = system: Shigella dysenteriae
Bacillus cereus = system: Bacillus cereus
[8] = system: Candida albicans ATCC 2002
[9] = system: Acinetobacter calcoaceticus
[10] = system: Escherichia coli DH5alpha
[11] = system: Kocuria rhizophila DSM 348
[12] = system: Staphylococcus aureus DSM 1104
[13] = system: Staphylococcus aureus ATCC 25923
[14] = system: Escherichia coli DSM 1103
[15] = system: Bacillus subtilis ATCC 6633
[16] = system: Micrococcus luteus DSM 1790
[17] = system: Pseudomonas aeruginosa 3A
Staphylococcus aureus 6A = system: Staphylococcus aureus 6A
[18] = system: Pseudomonas aeruginosa 7A
Escherichia coli 23A = system: Escherichia coli 23A
[19] = system: Staphylococcus aureus 15A
Escherichia coli 27A = system: Escherichia coli 27A
Candida glabrata 090902 = system: Candida glabrata 090902
[20] = system: Nocardia asteroides 201118
Bacillus subtilis = system: Bacillus subtilis
[21] = system: Staphylococcus aureus ATCC 43300

Structure (SMILES): CC[C@H](C)[C@H](NC(=O)[C@H](C)N)C(=O)N[C@@H](Cc1cnc[nH]1)C(=O)N[C@@H](CCCCN)C(=O)N[C@@H](CC(C)C)C(=O)N[C@@H](C)C(=O)N[C@@H](Cc1cnc[nH]1)C(=O)N[C@@H](CCCCN)C(=O)N[C@@H](CC(C)C)C(=O)N[C@@H](CC(C)C)C(=O)N[C@@H](CCCCN)C(=O)N[C@@H](CCCCN)C(=O)N[C@@H](CC(C)C)C(=O)N[C@@H](CC(C)C)C(=O)N[C@@H](CCCN=C(N)N)C(=O)N[C@@H](C)C(=O)N[C@H](C(=O)N[C@@H](CCCCN)C(=O)N[C@@H](CCCCN)C(=O)N[C@@H](CC(C)C)C(=O)N[C@@H](C)C(=O)N[C@@H](CC(N)=O)C(=O)O)C(C)C [AIHKLAHKLLKKLLRAVKKLAN]
MIC (Escherichia coli UB1005): 3.1 µM (≈ 7.77 µg/mL)
MIC (Pseudomonas aeruginosa): 4.5 µM (≈ 11.3 µg/mL)
MIC (Salmonella typhimurium): 6 µM (≈ 15 µg/mL)
MIC (Staphylococcus aureus): 30 µM (≈ 75.2 µg/mL)
MIC (Escherichia coli 55B5): 2.5 µM (≈ 6.27 µg/mL)

Structure (SMILES): CSCC[C@H](NC(=O)CNC(=O)[C@H](C)NC(=O)[C@H](CCC(=O)O)NC(=O)[C@H](CCCCN)NC(=O)[C@H](C)NC(=O)[C@@H](NC(=O)CNC(=O)[C@H](CCCCN)NC(=O)[C@H](CC(C)C)NC(=O)[C@H](CC(C)C)NC(=O)[C@H](CC(=O)O)NC(=O)CNC(=O)[C@H](Cc1ccccc1)NC(=O)[C@H](C)NC(=O)CN)C(C)C)C(=O)N[C@@H](CCCCN)C(=O)N[C@@H](CC(C)C)C(=O)N[C@@H](CC(C)C)C(=O)N[C@@H](CC(N)=O)C(=O)N[C@@H](CCSC)C(=O)N[C@@H](C)C(=O)N[C@@H](CCC(N)=O)C(=O)N[C@H]1CSSC[C@@H](C(=O)O)NC(=O)[C@H](CCCCN)NC(=O)CNC(=O)[C@H](CO)NC(=O)[C@H](CC(C)C)NC(=O)[C@H](CCCCN)NC1=O [GAFGDLLKGVAKEAGMKLLNMAQCKLSGKC]
MIC (Serratia rubidaea X01): ≥ 130 µM
MIC [1]: ≥ 65 µM
MIC [2]: 2 µM (≈ 6.16 µg/mL)
MIC [3]: 0.5 µM (≈ 1.54 µg/mL)
MIC [4]: 32.5 µM (≈ 100 µg/mL)
MIC [5]: 8 µM (≈ 24.6 µg/mL)
MIC [6]: 2 µM (≈ 6.16 µg/mL)
MIC [7]: 0.5 µM (≈ 1.54 µg/mL)

Structure (SMILES): CC[C@H](C)[C@H](NC(=O)CN)C(=O)N[C@@H](Cc1ccccc1)C(=O)N[C@@H](C)C(=O)N[C@@H](CC(C)C)C(=O)N[C@H](C(=O)N[C@@H](CCCCN)C(=O)N[C@H](C(=O)N[C@@H](C)C(=O)N[C@@H](C)C(=O)N[C@@H](CCCCN)C(=O)N[C@@H](Cc1ccccc1)C(=O)N[C@H](C(=O)NCC(=O)N[C@@H](CCCCN)C(=O)N[C@@H](CC(N)=O)C(=O)N[C@@H](CC(C)C)C(=O)N[C@@H](CC(C)C)C(=O)N[C@@H](CCCCN)C(=O)N[C@@H](CCC(N)=O)C(=O)N[C@@H](C)C(=O)NCC(=O)N[C@@H](CCCCN)C(=O)N[C@@H](C)C(=O)NCC(=O)N[C@@H](CC(C)C)C(=O)N[C@@H](CCC(=O)O)C(=O)N[C@@H](Cc1cnc[nH]1)C(=O)N[C@@H](CC(C)C)C(=O)N[C@@H](C)C(=O)N[C@H]1CSSC[C@@H](C(=O)O)NC(=O)[C@H](CCC(N)=O)NC(=O)[C@H](CC(N)=O)NC(=O)[C@H](CC(N)=O)NC(=O)[C@H](C)NC(=O)[C@H](CCCCN)NC1=O)C(C)C)[C@@H](C)O)[C@@H](C)CC [GIFALIKTAAKFVGKNLLKQAGKAGLEHLACKANNQC]
MIC (Bacillus pumilus): 0.646 µM (≈ 2.5 µg/mL)
MIC (Pseudomonas aeruginosa): 12.9 µM (≈ 50 µg/mL)
MIC (Shigella dysenteriae): 1.94 µM (≈ 7.5 µg/mL)
MIC (Bacillus cereus): 1.94 µM (≈ 7.5 µg/mL)
MIC [8]: 0.646 µM (≈ 2.5 µg/mL)
MIC [4]: 3.23 µM (≈ 12.5 µg/mL)
MIC [6]: 0.646 µM (≈ 2.5 µg/mL)
MIC [9]: 6.46 µM (≈ 25 µg/mL)

Structure (SMILES): CC[C@H](C)[C@H](NC(=O)[C@H](C)NC(=O)CNC(=O)[C@H](C)NC(=O)[C@H](CCCCN)NC(=O)[C@H](CO)NC(=O)[C@H](C)NC(=O)[C@H](CCSC)NC(=O)CN)C(=O)N[C@@H](C)C(=O)NCC(=O)N[C@@H](CCCCN)C(=O)N[C@H](C(=O)N[C@@H](C)C(=O)N[C@@H](CCCCN)C(=O)N[C@H](C(=O)N[C@@H](C)C(=O)N[C@@H](CC(C)C)C(=O)N[C@@H](CCCCN)C(=O)N[C@@H](C)C(=O)N[C@@H](CC(C)C)C(=O)O)C(C)C)[C@@H](C)CC [GMASKAGAIAGKIAKVALKAL]
MIC [10]: ≥ 65 µM
MIC [11]: ≥ 65 µM
MIC [12]: ≥ 65 µM
MIC [13]: 5.08 µM (≈ 10 µg/mL)
MIC [14]: ≥ 65 µM
MIC [4]: 0.0305 µM (≈ 0.0601 µg/mL)
MIC [15]: 16.2 µM (≈ 32 µg/mL)
MIC [16]: ≥ 65 µM

Now from value to compound:

MIC [17]: 10.3 µM (≈ 15 µg/mL)
MIC (Staphylococcus aureus 6A): 1.3 µM (≈ 1.9 µg/mL)
MIC [18]: ≥ 82.3 µM
MIC (Escherichia coli 23A): 10.3 µM (≈ 15 µg/mL)
MIC [19]: 2.57 µM (≈ 3.75 µg/mL)
MIC [8]: 10.3 µM (≈ 15 µg/mL)
MIC (Escherichia coli 27A): ≥ 41.2 µM
MIC [4]: 10.3 µM (≈ 15 µg/mL)
MIC [6]: 2.57 µM (≈ 3.75 µg/mL)
Structure (SMILES): CC[C@H](C)[C@H](N)C(=O)N[C@@H](CC(N)=O)C(=O)N[C@@H](CCSC)C(=O)N[C@@H](CCCCN)C(=O)N[C@@H](C)C(=O)N[C@@H](CO)C(=O)N[C@@H](C)C(=O)N[C@@H](C)C(=O)N[C@H](C(=O)N[C@@H](C)C(=O)N[C@@H](CCCCN)C(=O)N[C@@H](CCCCN)C(=O)N[C@@H](CC(C)C)C(=O)N[C@@H](CC(C)C)C(=O)O)C(C)C [INMKASAAVAKKLL]

MIC (Candida glabrata 090902): ≥ 150 µM
MIC [20]: 4.7 µM (≈ 15.9 µg/mL)
MIC [8]: 4.44 µM (≈ 15 µg/mL)
MIC (Bacillus subtilis): 2.78 µM (≈ 9.37 µg/mL)
MIC [4]: 75 µM (≈ 253 µg/mL)
MIC [21]: 2.78 µM (≈ 9.37 µg/mL)
Structure (SMILES): CC[C@H](C)[C@H](NC(=O)[C@H](Cc1ccccc1)NC(=O)CNC(=O)[C@H](CCCCN)NC(=O)CNC(=O)[C@H](C)NC(=O)[C@H](CC(N)=O)NC(=O)[C@H](CCCCN)NC(=O)[C@@H](NC(=O)[C@@H](NC(=O)[C@H](CCC(=O)O)NC(=O)[C@H](Cc1c[nH]c2ccccc12)NC(=O)[C@H](CC(C)C)NC(=O)[C@@H](N)CO)[C@@H](C)O)[C@@H](C)CC)C(=O)N[C@@H](CC(C)C)C(=O)N[C@@H](CC(N)=O)C(=O)N[C@H](C(=O)N[C@@H](CC(C)C)C(=O)N[C@@H](CC(=O)O)C(=O)N[C@@H](CCCCN)C(=O)N[C@H](C(=O)N[C@@H](CCCN=C(N)N)C(=O)N[C@H]1CSSC[C@@H](C(=O)N[C@@H](CCCCN)C(=O)N[C@H](C(=O)O)[C@@H](C)O)NC(=O)CNC(=O)CNC(=O)[C@H](C)NC(=O)[C@H](C(C)C)NC(=O)[C@H](CCCCN)NC1=O)[C@@H](C)CC)[C@@H](C)CC [SLWETIKNAGKGFILNILDKIRCKVAGGCKT]
